Columns and labels:
[1] = system: participants with type 2 diabetes; test: Phase II trial: exploratory biomarkers and NASH-related scores, change from baseline at EoT; type: in vivo, human; settings: up to 1.0 mg qw open-label, after 16 weeks
Text: Pharmacodynamic endpoints were the changes from baseline in exploratory biomarkers related to liver function and fatty liver disease (plasma levels of cytokeratin 18 and Pro-C3 and enhanced liver fibrosis [ELF] score), glucose metabolism (adiponectin and fasting insulin and C-peptide levels) and target receptor engagement (amino acid and glucagon levels). Exploratory NASH-related scores (Fibrosis-4 [Fib-4] score, aspartate aminotransferase/platelet ratio [APRI] and non-alcoholic fatty liver disease [NAFLD] fibrosis score) were assessed as safety-related endpoints.
HbA1c was assessed at screening, weeks 1, 5, 8, 12 and 16, EoT and follow-up and analysed centrally. Bodyweight was measured at every visit (screening, weeks 1–8, 12 and 16, EoT and follow-up). Waist circumference was measured at screening, weeks 1 and 6 and EoT. Waist circumference was measured at the midpoint between the lowest rib and the iliac crest. Participants were provided with a glucose monitoring device for weekly use at home during the study. Participant-reported outcomes (Three-Factor Eating Questionnaire [TFEQ-R18 V2], Patient Global Impression of Severity [PGI-S] and a hunger visual analogue scale [VAS]) were assessed at weeks 1, 5 and 8 and EoT in a fasted state. […]
(§1) MMRM, as for the primary endpoint, and descriptive statistics. All safety endpoints, NASH-related scores and SMBG were analysed descriptively. […]

[2] = system: participants with type 2 diabetes; test: Phase II trial: adverse events (safety and tolerability); type: in vivo, human; settings: up to 1.0 mg qw open-label
Description: (VAS), the Patient’s Global Impression of Severity (PGI-S) for difficulty to control eating behaviours and the 7-point profile of self-monitoring of blood glucose (SMBG).
At each study visit, participants were advised to adhere to the specific recommended diet and exercise plan provided to them during diet and exercise counselling throughout the study.
Survodutide was made available in vials (2 mg/ml, 1 ml fill volume per vial) for dose escalation in Weeks 1–6 and in pre-filled syringes (various concentrations, 0.5 ml fill volume) for maintenance dose in Weeks 7–16. The placebo solution (isotonic sodium chloride) was filled into identical vials or pre-filled syringes. […]
Safety and tolerability were assessed based on the general occurrence of treatment -emergent adverse even ts, safety laboratory parameters, physical examination, vital sign measurements and 12 -lead ECG . ECG services were externally provided and recordings were evaluated centrally.
as §1

[3] = Phase II trial: pharmacokinetics (steady state, dose proportionality of trough concentrations); type: in vivo, human
Description: The attainment of steady state and dose proportionality of survodutide were assessed as pharmacokinetic endpoints.
HbA1c was assessed at screening, weeks 1, 5, 8, 12 and 16, EoT and follow-up and analysed centrally. Bodyweight was measured at every visit (screening, weeks 1–8, 12 and 16, EoT and follow-up). Waist circumference was measured at screening, weeks 1 and 6 and EoT. Waist circumference was measured at the midpoint between the lowest rib and the iliac crest. Participants were provided with a glucose monitoring device for weekly use at home during the study. Participant-reported outcomes (Three-Factor Eating Questionnaire [TFEQ-R18 V2], Patient Global Impression of Severity [PGI-S] and a hunger visual analogue scale [VAS]) were assessed at weeks 1, 5 and 8 and EoT in a fasted state. Blood sampling for pharmacokinetics was carried out at every visit (weeks 1–8, 12 and 16, EoT and follow-up) and blood sampling for exploratory biomarkers was carried out at weeks 1, 5, 8 and 12, EoT and follow-up. Safety assessments are described in the ESM Methods.

[4] = system: people with type 2 diabetes or overweight/obesity; settings: AWARD-5, 52 weeks; cited from earlier work
Text: Glucagon-like peptide-1 receptor (GLP-1R) agonists, such as liraglutide and semaglutide, have been developed for the treatment of both type 2 diabetes and obesity. […] Apart from the well-characterised gastrointestinal (GI) adverse events (AEs), GLP-1R agonists are generally well tolerated. ... || Survodutide (BI 456906) is a novel subcutaneous GCGR/GLP-1R dual agonist in development for the treatment of people with type 2 diabetes, obesity and non-alcoholic steatohepatitis (NASH). Addition of a C18 fatty acid into the acylated peptide, as a half-life-extending principle, allows for weekly administration of survodutide. […] In ... || In addition to semaglutide, other GLP-1R agonists now approved for the treatment of type 2 diabetes have been investigated in combination with background metformin therapy. […] The maximum reduct ... || (+ 2 further places)

[5] = in vivo; cited from earlier work

Semaglutide: GLP-1R agonist; open-label reference control, up to 1.0 mg qw
Change from baseline in glucagon [1]: no relevant changes
Participants reporting severe AEs [2]: none

Survodutide
Time at which steady state appeared to be achieved (visually) ([3]; DG1–5, plasma trough concentrations): 8 week
Time at which steady state appeared to be achieved (visually) ([3]; DG6, plasma trough concentrations): 12 week
Dose proportionality of plasma trough concentrations ([3]; escalating weekly or biweekly sc doses): approximately dose-proportional

dulaglutide: GLP-1R agonist approved for the treatment of type 2 diabetes
Bodyweight reduction [4]: –3.1 kg

oxyntomodulin: endogenous proglucagon derivative, GCGR/GLP-1R dual agonist
Half-life [5]: very short

— paper PMC10844353, “Dose–response effects on HbA1c and bodyweight reduction of survodutide, a dual glucagon/GLP-1 receptor agonist, compared with placebo and open-label semaglutide in people with type 2 diabetes: a randomised clinical trial” (Diabetologia, 2023)
